Experimental data: PMC6773865, “Functional recruitment of dynamin requires multimeric interactions for efficient endocytosis” (Nature Communications, 2019)
Where no end group is shown, it is not given here.

Key:
[1] = test system: uptake of shiga toxin B; assay type: cell-based
[2] = test system: β1 adrenergic receptor internalization in BSC-1 cells; experiment: β adrenergic receptor internalization assay, β1AR; assay type: cell-based; details: 30 µM, 20 min pre-treatment, isoproterenol-induced
[3] = test system: uptake of cholera toxin B; assay type: cell-based
[4] = test system: β2 adrenergic receptor internalization in BSC-1 cells; experiment: β adrenergic receptor internalization assay, β2AR; assay type: cell-based; details: 30 µM, 20 min pre-treatment, isoproterenol-induced
[5] = test system: membrane capacitance of NIH 3T3 cells (balance between exocytosis and endocytosis); experiment: Cell capacitance in whole cell patch-clamp; assay type: cell-based; details: 10th minute over 1st minute of whole cell recording; peptides 1 mM; paired t-test
Experimental: Cells were patched with pipettes made of borosilicate glass (GC150F, Harvard Apparatus) and pulled with a vertical Narishige puller (World Precision Instruments). The solution contained (in mM): 130–140 KCH3SO3, 1 EGTA, 0.1 CaCl2, 10–20 HEPES, 4 ATP (sodium or magnesium salt), 0.4 Na-GTP (or GTPγS when indicated), 5 phosphocreatine and 3 sodium ascorbate. pH was adjusted to 7.2 using KOH and osmolarity to ~300 mOsm L^−1. Sodium ascorbate was omitted in earlier recordings but was added for better stability. Chloride ions either came from 2 mM KCl, 10 mM NaCl or 4 mM MgCl2 (when Na-ATP was used) in various trials. All salts were purchased from Sigma-Aldrich. Cells were voltage-clamped at −60 mV with an EPC10 amplifier (HEKA) with series resistance and cell capacitance estimation every 4 s in the whole cell mode. The digital triggers of the amplifier were used to drive the electrovalves for pH changes. Cell viability and dialysis efficiency were made sure of by monitoring […] throughout the recording using the Patchmaster software (HEKA): series resistance should remain below 10 MΩ and holding current should remain above −100 pA. If either of these criteria was not respected (except holding current for recordings in GTPγS, see Supplementary Fig. 3D), the recording was not considered for analysis. On a given experimental day at least one control recording (i.e. without any peptide) was performed to ensure recording quality. All these recordings were pooled in the ‘control’ condition (n = 63 on 42 experimental days). […]
Supplementary Figure 5: Characteristics of the whole cell recordings in the different conditions of this study. A, Scheme of the equivalent electrical circuit of a cell recorded in the whole cell configuration. […]
This is likely due to the activation of GTP dependent trimeric G proteins which activate various channels in the presence of GTPγS, thereby increasing the holding current. […] F, Ratios of Cm recorded during the 10 th minute of recording over Cm recorded during the 1st minute. […]

[6] = test system: clathrin mediated endocytosis (TfR-SEP) in NIH 3T3 cells; experiment: ppH assay combined with patch-clamp dialysis; assay type: cell-based; details: for event frequency ratio f = FWC/FCA: average ± SEM, SEM
Experimental: To do so, we monitored cellular endocytic activity using the ppH assay with new developments for fully automated analysis on a large number of cells (See “Methods” and Supplementary Fig. 4). We combined this assay, which monitors in real time the endocytic activity of cells, with the patch-clamp technique in order to dialyse the relevant peptide at a known concentration inside the cellular cytoplasm to inhibit endocytosis acutely. Each recording consisted of 5 min in cell-attached mode (CA) with no dialysis followed by 10 min in whole cell mode (WC) during which the inhibitors were dialysed (Fig. 5a, b). Each recording therefore had its own internal control condition, i.e., the cell-attached mode, from which we obtained the frequency ratio f = FWC/FCA, where F is the event frequency recorded during the indicated mode. Of note, the electrical parameters of patch clamp recordings were similar in all conditions (Supplementary Fig. 5). To assess the innocuousness of this assay, we monitored the endocytic activity of unperturbed cells vs. cells dialysed with a control solution (see methods for composition). Patching the cells minimally affected their endocytic activity over a 10 min period (event frequency f = 67.3 ± 4.3%, n = 60, vs. 90.7 ± 14.9% in no patching recordings, n = 8, p = 0.58).
NIH 3T3 cells (ECACC 93061524) were cultured in DMEM supplemented with 1% sodium pyruvate, 1% glutamax and 10% fetal calf serum (Invitrogen). Cells were incubated at 37 °C in 5% CO2 until use and subcultured every 2 to 4 days for maintenance up to passage 20. Cells were transfected with 1.5 μg of TfR-SEP plasmid 24 h prior to imaging and patch clamp. Care was taken to find the right balance between sufficient fluorescent signal to allow for proper imaging and reasonable overexpression to diminish potential saturation artefacts. Best results were obtained using Fugene 6 (Promega) as the transfection reagent but Lipofectamine 2000 (Invitrogen) has also been used in this study due to a temporary arrest of Fugene 6 production by the provider. All transfections were performed according to the manufacturers’ recommendations. Four to eight hours after transfection, cells were seeded at a density of ~70,000 cells ml^−1 on 18 mm glass coverslips coated with poly-L-lysine (3 min application of 0.1 mM polylysine (Sigma P2636) in borate buffer, pH 8.0 followed by a quick rinse in PBS) and used the next day.
Fast solution exchange was controlled by electro-valves (Lee company) connected to a theta glass pipette (TG150, Harvard Apparatus) pulled to ∼100-μm tip size using a vertical puller (Narishige, World Precision Instruments) placed above the recorded cell. Cells were alternatively perfused with HEPES or MES buffered saline solutions (HBS/MBS) containing (in mM): 135 NaCl, 5 KCl, 0.4 MgCl2, 1.8 CaCl2, 1 D-glucose and 20 HEPES or MES. The pH was adjusted to 7.4 or 5.5 using NaOH and osmolarity to 310–315 mOsm L^−1 with NaCl.
Cells were patched with pipettes made of borosilicate glass (GC150F, Harvard Apparatus) and pulled with a vertical Narishige puller (World Precision Instruments). The solution contained (in mM): 130–140 KCH3SO3, 1 EGTA, 0.1 CaCl2, 10–20 HEPES, 4 ATP (sodium or magnesium salt), 0.4 Na-GTP (or GTPγS when indicated), 5 phosphocreatine and 3 sodium ascorbate. pH was adjusted to 7.2 using KOH and osmolarity to ~300 mOsm L^−1. Sodium ascorbate was omitted in earlier recordings but was added for better stability. Chloride ions either came from 2 mM KCl, 10 mM NaCl or 4 mM MgCl2 (when Na-ATP was used) in various trials. All salts were purchased from Sigma-Aldrich. Cells were voltage-clamped at −60 mV with an EPC10 amplifier (HEKA) with series resistance and cell capacitance estimation every 4 s in the whole cell mode. The digital triggers of the amplifier were used to drive the electrovalves for pH changes. […]

[7] = biological target: dD15-N (divalent peptide: two D15 motifs linked through their N termini by PEG linkers); experiment: SPR; biotinylated peptides immobilised (50-90 RU) on biotin CAPture chips, GST-amphSH3 or Ntr-bSUMO-amphSH3 as analyte; 25 °C; 10 mM sodium phosphate pH 7.4, 150 mM NaCl, 0.01% Tween-20; single cycle kinetics, 1:1 Langmuir fit, estimated KDs
[8] = biological target: GST-amphSH3 (SH3 domain of murine amphiphysin1 fused to glutathione S-transferase) (not stated | murine) (UniProt Q7TQF7); experiment: SEC; analytical size exclusion chromatography, Superdex200 Increase 10/300 GL, PBS + 0.01% Tween-20, 0.75 mL/min
[9] = biological target: dD15-N (divalent peptide: two D15 motifs linked through their N termini by PEG linkers); experiment: SPR; biotinylated peptides immobilised (50-90 RU) on biotin CAPture chips, SUMO-amphSH3 as analyte; 25 °C; 10 mM sodium phosphate pH 7.4, 150 mM NaCl, 0.01% Tween-20; steady-state (equilibrium) analysis
[10] = biological target: D44 peptide (derived from the dynamin1 PRD, bears motifs A and B); experiment: as above
[11] = biological target: dD15-N (divalent peptide: two D15 motifs linked through their N termini by PEG linkers); experiment: as above; remark: listed apart in the source
[12] = biological target: T1, SUMO-amphSH3 (SH3 domain of murine amphiphysin1 fused to the small ubiquitin-like modifier) (murine, UniProt Q7TQF7 607-686); experiment: as above; details: both partners purified
T1 construct: amphiphysin 1, mouse, SH3 domain, residues 607-686, subcloned from pAmph1-mCherry into a modified pET-SUMO vector with a TEV site after the SUMO tag; A TEV cleavage site and multiple cloning site lie between SUMO and the SH3 domain; Monomer by SEC; also called SUMO-SH3; monomeric amphSH3; source: E. coli BL21-CodonPlus (DE3)-RIPL, auto-induction at 16 °C, purified (Ni-NTA, SEC); not shown: SUMO, …
T1 sequence (looked up): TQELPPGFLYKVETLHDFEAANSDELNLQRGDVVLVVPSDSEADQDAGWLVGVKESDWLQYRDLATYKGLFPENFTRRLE

O=C(N/N=C/c1cc(O)c(O)cc1O)c1cc2ccccc2cc1O [Dyngo4a]
inhibition of shiga toxin B uptake [1]: only partially sensitive to inhibition | effect on β1AR internalization [2]: fully block | inhibition of cholera toxin B uptake [3]: only partially sensitive to inhibition | effect on β2AR internalization [4]: fully block

Nc1nc2c(ncn2[C@@H]2O[C@H](COP(=O)(O)OP(=O)(O)OP(O)(O)=S)[C@@H](O)[C@H]2O)c(=O)[nH]1 [GTPγS, reference compound]
change of Cm, Cm(10')/Cm(1') [5]: no significant decrease in Cm | event frequency ratio f = FWC/FCA ([6]; GTP replaced by GTPγS in the pipette solution, n = 4): 11.2 ± 4.1%

Ac-YALGGAPPVPSRPGASPDPFGPPPQVPSRPNRAPPGVPRITISDP-NH2 (N-terminus and C-terminus assumed) [D44]
change of Cm, Cm(10')/Cm(1') [5]: no significant decrease in Cm | event frequency ratio f = FWC/FCA ([6]; 100 µM peptide in patch pipette, event frequency 8–10 min whole cell over 3–5 min cell attached, same cell, n = 13 (D15)): 41.4 ± 9.6% | event frequency ratio f = FWC/FCA ([6]; 1 mM peptide in patch pipette, event frequency 8–10 min whole cell over 3–5 min cell attached, same cell, n = 22 (D15), 15 (D44), 6 (dD15-C)): 20.6 ± 5.2% | inhibition of endocytosis on dialysis ([6]; peptide dialysed through patch pipette, 3T3 cells, ppH assay): fully inhibited CCV formation

GST-amphSH3 (SH3 domain of murine amphiphysin1 fused to glutathione S-transferase) (from UniProt Q7TQF7 607-686) (domain or fragment)
Kd [7]: 0.509 µM | stoichiometry N [8]: 2

Ntr-bSUMO-amphSH3 complex (biotinylated SUMO-amphSH3 bound to tetrameric neutravidin) (from UniProt Q7TQF7 607-686)
Kd [7]: 0.0045 µM

B1: SUMO-amphSH3 (SH3 domain of murine amphiphysin1 fused to the small ubiquitin-like modifier) (domain or fragment)
chain: T1 sequence (looked up)
Kd [9]: 66 µM | Kd [10]: 37 µM | Kd [11]: 65 µM

B2: D15 peptide (monovalent, from the dynamin1 PRD, holds motif B) (peptide)
chain: PPPQVPSRPNRAPPG-NH2
modifications: also: N-terminal biotin via TTDS spacer (biotinylated form) or N-terminal acetyl (form used in cells)
Kd [12]: 102 ± 2 µM
